The source of these data is patent US20260325575A1, “THE USE OF BORATE DERIVATIVES IN THE TREATMENT OF NEURODEGENERATIVE DISEASES” (YEDITEPE UNIVERSITESI, priority 2022, published 2026).

The subject of data set [1] is SHSY5Y cells differentiated into neuron cells. Kind of data set: Cytotoxicity analysis (MTS). Type of data set: cell-based, human. Conditions: 24 hours, neuronal cells. How it is done: (§1) SHSY5Y cells stocked in cryo tubes at −80° C. or liquid nitrogen were kept in a water bath at 37° C. until completely solved. The solved cells were transferred to 15 ml Falcon tubes containing 5 ml cell medium and centrifuged at 300×g for 5 minutes. After centrifugation, the medium on the cells was removed and the cells were solved with 1 ml of fresh medium using a pipette. Then, the cells were transferred to cell flask containing 12 ml DMEM/F12 medium and incubated at 37° C. for 24±2 hours in an incubator containing 5% CO2.
(§2) The next day, the medium on the adherent cells was changed and incubation was continued until the cells formed 85%-90% monolayer […]. The medium of the monolayered cells was removed and the cells were washed with 5 ml PBS. […]
(§3) After the incubation period was completed, the medium on the cells was removed and the cells were washed again with 1 ml PBS. […] At the end of the tenth day, neuronal cells were ready.
(§4) After the incubation period was completed (24 hours), the medium on the cells was removed and replaced with 10% MTS solution prepared in the cell medium. […] After incubation, absorbance measurements were made using an ELISA plate reader at 490 nm. From the absorbance values obtained, cell viability was calculated according to the formula ((Mean Cell Abs./Mid. Negative Con. Abs.)*100). […]

Data set [2] relates to gene expression in brain and spinal cord tissues of transgenic mice. As to the kind of experiment: Microarray gene expression and pathway analysis (PANTHER GO) in brain and spinal cord. It is filed as in vivo, mouse (C57BL/6 SOD1 G93A. Conditions: transgenic animals, n=3. On the procedure:
FIG. 2. is a representation of the gene expressions of the other groups compared to the transgenic control group in the form of a heat map, as a result of the microarray analysis performed on the spinal cord materials of the transgenic and wild type experimental groups (n=3 per group) that received NaB, SPT and water only. (Statistical differences between groups were compared using Volcano plot analysis (two-way ANOVA; P values<0.05) and fold change ±2 and more were considered statistically significant).
FIG. 3. is a representation of some of the pathways in which SPT and NaB derivatives are found to be effective as a result of the pathway analysis (PANTHER Gene Ontology (GO) Classification and Pathway System) and of the number of genes located in these pathways (Total number of genes: 2677, total number of hits: 443).
In addition to measurements of motor function, in order to investigate whether derivatives induce any gene-based changes in the Central nervous system, brain and spinal cord materials were collected from wild type and transgenic control (water), NaB and SPT group animals with n=3 and RNA was isolated from these materials and microarray analysis was performed. […]

For data set [3], the system named is Amyloid beta plaques in SHSY5Y cells differentiated into cholinergic neurons. As to the kind of experiment: Amyloid beta plaques in Alzheimer's model, immunocytochemistry (fluorescence). Type of data set: cell-based, human.
Protocol: SH-SY5Y cells were seeded in 6-well plates with 250×10^5 cells in each well and incubated with medium containing DMEM/F12, 10% FBS, 1% PSA at 37° C. in 5% CO2 for 24 hours. Then, the medium on the cells was removed and each well was washed with 1 ml PBS. Then, 2 ml of differentiation medium (1% FBS, 10 μM/ml RA) was added to each cell well and cells were incubated for 72 hours.
After the incubation period was completed, the medium on the cells was removed and the cells were washed again with 1 ml PBS. Afterwards, 2 ml of differentiation medium (1% FBS, 10 μM/ml RA, 10 μg/ml BDNF) was added to the cells and incubated for 72 hours. The same procedure was repeated on the seventh day. At the end of the tenth day, neuronal cells were ready.
Obtaining Alzheimer's Model and Evaluation of Active Substances
Immunocytochemistry Analysis
The old media on the incubated cells were removed and the cells were washed three times with 1 ml PBS.
Firstly, cells were fixed with 1 ml of 2% paraformaldehyde for 30 min at room temperature and then washed three times with PBS. […]
After incubation, the cells were washed three times with PBS. […] Finally, the cells were washed three times with PBS and measurements were taken with a fluorescence microscope (Zeiss).
The data obtained from the immunocytochemistry study were analysed using Image J (National Institutes of Health) and MS Excel.
Data set [4] can be described thus: Cytotoxicity analysis (MTS). Type of data set: cell-based, human. Conditions: human, differentiated sh-sy5y cells, neuronal cells, read-out: non-toxic concentration. How it is done: as §1, §2, §3, §4
The test system of data set [5] is SOD1 G93A transgenic mice. Kind of data set: Neuroscoring, phenotypic characteristics of NS1 phase. Type of data set: in vivo, mouse (C57BL/6 SOD1 G93A. How it is done: SPT or NaB derivatives at 200 mg/kg per mouse were vortexed at high speed and dissolved in the daily drinking water of the mice. Borate Solutions prepared thus in drinking water were administered to mice by gavage every other day for 3 weeks. The control group received only the same amount of drinking water by gavage.
In order to observe during the experiment the stages when early and late symptoms of the disease occur, wild-type and transgenic animals were subjected to neuroscoring as described in the study by Hatzipetros et al. In this way, it was aimed to observe whether the administration to the animals caused any difference in the onset, course and severity of ALS symptoms. For this, the table of the disease course is graded with a scoring System as follows: • 1. Neuro Score 0 (NS 0, Pre-symptomatic): When suspended by the tail, the mouse can fully extend its hindlimbs away from the lateral midline to the side in a normal manner and stay in this position for at least two seconds or longer. When the mouse is allowed to walk, normal gait is observed. • 2. NS 1 (First symptoms): When the mouse is suspended by the tail, its hindlimbs cannot fully extend away from the lateral midline, they partially collapse backwards or the hindlimbs are observed to tremble (tremor). Towards the end of the phase, gait disturbances and slow gait (ataxia) begin. The first symptoms usually appear as of day 90. • 3. NS 2 (Partial paralysis, paresis): When the mouse is suspended by the tail, its hindlimbs are partially or completely collapsed, or cannot extend much, there is still joint movement. When the mouse is allowed to walk, it can use its hindlimbs for forward motion, however it is observed that its toes curl backwards at least twice during a 90 cm walk or it can move by dragging its feet. When the mouse is placed on its left or right side, it is able to right itself within 10 seconds. • 4. NS 3 (Paralysis): When the mouse is suspended by the tail, it is observed that there is rigid paralysis in its hindlimbs or minimal joint movement. When the mouse is allowed to walk, it is observed that there is forward motion however it cannot use its hindlimbs. When the mouse is placed on its left or right side, it is observed that it is able to right itself within 10 seconds. • 5. NS 4 (Humane end-point): When the mouse is suspended by the tail, it is observed that there is rigid paralysis in its hindlimbs. When the mouse is allowed to walk, no motion is observed, when the mouse is placed on its left or right side it is observed that it is not able to right itself within 10 seconds, i.e., absence of righting reflex.
According to this scoring system, if we divide the symptoms observed in animals into phases according to the order of occurrence, 50-80 days after birth can be considered pre-symptomatic. Since as of day 90 the first symptoms start to appear, we can consider this date as the beginning of the early symptomatic phase and also the beginning of neuroscore 1. Although it can vary, this period can last 20-38 days and also covers the neuroscore 2 phase. As of day 120 on average, the process is called late symptomatic. Although it may last a little longer in females, this period lasts 5-10 days on average and neuroscore 3 and 4 phases are also observed during this late symptomatic period

Data set [6] concerns SOD1 G93A transgenic mice. Kind of data set: Rotarod test (motor performance) in SOD1 G93A transgenic mice. It is filed as in vivo, mouse (C57BL/6 SOD1 G93A. Particulars: 200 mg/kg by gavage every other day for 3 weeks; vs transgenic control (water); 14 rpm, max 180 s; n=8. How it is done: In the in vivo studies conducted, the SOD1 G93A transgenic mice model, which is one of the most preferred animal models for modeling ALS disease, was used. In the study (n=8); SPT and NaB were administered to the animals every other day by gavage. As a result of the comparison of the motor functions of these transgenic animals that received SPT and NaB throughout the experiment with the motor functions of the transgenic control (water) group, it was observed that SPT increased the performance of the rotarod test by 88.4% in the SOD1 G93A model compared to the control group (P<0.01). […] In the group that received water, it was observed that the findings aggravated over time and the rotarod performance decreased.
Example 1 Information about the Experimental Animals Used
Example 2 Experimental Groups
Example 3 Substance Administration
SPT or NaB derivatives at 200 mg/kg per mouse were vortexed at high speed and dissolved in the daily drinking water of the mice. […]
The mice were acclimatized with the rotarod test apparatus for one day before their motor function was tested and their performance was recorded at the end of the second day. Their motor performances were measured three times for a maximum of 180 seconds at a constant speed of 14 rpm, and their longest residence time on the apparatus was recorded. […]
(In the rotarod test animals must keep their balance on a rotating rod.)

A further data set relates to ALS patients. Conditions: cited from earlier work.
Setting [7] is: day 90, 200 mg/kg by gavage every other day, tg mice.
Where [8] appears, read: day 110, 200 mg/kg by gavage every other day, tg mice.

In the case of “Amyloid Beta: Amyloid Beta (Aβ), applied to differentiated SHSY5Y cells to create an Alzheimer's model [reference compound]”, the non-toxic concentration in data set [1] was found to be 4 µg/mL.

As for `O.O.O.O.O.O=BO[B-](OB=O)(OB=O)OB=O.[Na+]` [NaB, sodium; tetrakis(oxoboranyloxy)boranuide; pentahydrate], the “gene expression compared to transgenic control / wild type” value in data set [2] is “reversed the gene expression at a statistically significant rate, approximating it to the gene expression level in wild type animals”. Besides, the “cells with Amyloid beta plaques” value in data set [3] (24 hours, substance alone (ONaB or OAβ group)) is listed as 0%. In addition, in data set [3] (Homo sapiens, SH-SY5Y, 24 h, read-out: plaques dissolved in Aβ+NaB group compared to the OAβ group), the inhibition at 5 µg/mL turned out to be 92.4%. For the same molecule, the MNTC at 24 h in data set [4] worked out at 5 µg/mL. In data set [5] (animals still in NS1 at end of experiment, vs control group), the “classical symptoms of stage 1 (NS1) at the end of the experiment (hindlimb retraction, tremor and ataxia)” value is on record as “considerably weaker than those in the control group”. Besides, in data set [5] (day 80, before administration, tg mice), the “s3 (ataxia), day 80 (t = 0)” value is recorded as “very mild”. For the same molecule, in data set [5] (setting [7]), the “s1 (hindlimb retraction), day 90 (onset of the disease-NS1)” value was “mild”; the “s2 (tremor), day 90 (onset of the disease-NS1)” value is “mild”; the “s3 (ataxia), day 90 (onset of the disease-NS1)” value is on record as “mild”. For the same molecule, in data set [5] (setting [8]), the “s1 (hindlimb retraction), day 110 (experiment endpoint)” value was “moderate”; the “s2 (tremor), day 110 (experiment endpoint)” value is on record as “moderate”; the “s3 (ataxia), day 110 (experiment endpoint)” value is “moderate”. The “increase in rotarod performance compared to the control group” value in data set [6] is listed as 62.45%.

As to `Nc1nc2ccc(OC(F)(F)F)cc2s1` [Riluzole], the “extension of patient's life span” value with ALS patients is on record as “approximately a few months”.
